US20110130380A1, “Heteroaryl Kinase Inhibitors” (priority 2009, published 2011)

target: Cdk9/cyclinT1 (Homo sapiens, UniProt P50750); experiment: Cdk9/cyclinT1 IMAP Protocol (fluorescence polarization kinase assay); conditions: Cdk9_cyclinT1_IC50, Table V; generated using one of the two Cdk9/cyclinT1 assays (IMAP or Alpha Screen), not stated which; ATP 6 uM
Sequence (P50750 whole entry): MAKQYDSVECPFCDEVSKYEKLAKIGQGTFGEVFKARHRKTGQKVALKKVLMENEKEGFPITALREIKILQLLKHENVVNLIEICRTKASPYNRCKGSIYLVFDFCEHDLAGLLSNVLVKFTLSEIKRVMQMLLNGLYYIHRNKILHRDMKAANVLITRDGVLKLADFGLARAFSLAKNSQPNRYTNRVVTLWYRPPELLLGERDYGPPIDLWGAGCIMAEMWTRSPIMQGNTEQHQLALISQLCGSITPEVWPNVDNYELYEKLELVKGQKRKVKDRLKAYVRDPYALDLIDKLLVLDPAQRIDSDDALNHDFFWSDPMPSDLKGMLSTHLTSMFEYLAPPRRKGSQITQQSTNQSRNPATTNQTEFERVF
Sequence (O60563 whole entry partner): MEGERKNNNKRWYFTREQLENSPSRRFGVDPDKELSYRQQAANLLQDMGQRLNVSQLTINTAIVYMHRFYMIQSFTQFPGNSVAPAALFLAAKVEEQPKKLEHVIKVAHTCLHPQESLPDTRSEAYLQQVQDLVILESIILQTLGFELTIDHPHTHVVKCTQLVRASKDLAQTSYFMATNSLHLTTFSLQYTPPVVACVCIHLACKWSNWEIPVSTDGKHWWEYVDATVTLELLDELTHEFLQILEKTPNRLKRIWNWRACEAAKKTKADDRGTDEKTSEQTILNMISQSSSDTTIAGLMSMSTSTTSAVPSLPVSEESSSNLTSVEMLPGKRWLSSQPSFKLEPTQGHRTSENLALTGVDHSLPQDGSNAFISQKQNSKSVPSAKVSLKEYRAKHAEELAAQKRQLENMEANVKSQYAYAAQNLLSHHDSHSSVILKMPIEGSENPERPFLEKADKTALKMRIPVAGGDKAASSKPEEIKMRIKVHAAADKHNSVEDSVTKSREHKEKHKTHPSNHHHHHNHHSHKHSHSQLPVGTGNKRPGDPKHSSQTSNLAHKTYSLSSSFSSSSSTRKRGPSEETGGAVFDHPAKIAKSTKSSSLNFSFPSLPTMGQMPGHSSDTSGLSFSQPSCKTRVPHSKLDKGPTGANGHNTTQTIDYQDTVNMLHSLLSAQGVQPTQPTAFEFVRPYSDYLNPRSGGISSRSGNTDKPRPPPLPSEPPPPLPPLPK

| Compound | IC50 [nM] |
| --- | --- |
| O=C(Nc1cc(-c2cccc(NCC3CCOCC3)n2)c(Cl)cn1)[C@@H]1CCCO1 [Example 67, (S)-Tetrahydro-furan-2-carboxylic acid {5′-chloro-6-[(tetrahydro-pyran-4-ylmethyl)-amino]-[2,4′]bipyridinyl-2′-yl}-amide] | 396 |
| O=C(Nc1cc(-c2cccc(NCC3CCOCC3)n2)c(Cl)cn1)[C@@H]1CNC[C@@H](C(F)(F)F)C1 (single isomer, unassigned) [Example 163] | 129 |
| O=C(Nc1cc(-c2cccc(NCC3CCOCC3)n2)c(Cl)cn1)[C@H]1CNC[C@@H](C(F)(F)F)C1 (racemic) [Example 148, (3R,5S)-/(3S,5R)-5-Trifluoromethyl-piperidine-3-carboxylic acid {5′-chloro-6-[(tetrahydro-pyran-4-ylmethyl)-amino]-[2,4′]bipyridinyl-2′-yl}-amide] | < 8 |
| O=C(Nc1cc(-c2cccc(NCC3CCCCCC3)n2)c(Cl)cn1)[C@@H]1CCCNC1 [Example 19, (R)-Piperidine-3-carboxylic acid [5′-chloro-6-(cycloheptylmethyl-amino)-[2,4′]bipyridinyl-2′-yl]-amide] | < 8 |
| O=C(Nc1cc(-c2cccc(NCC3CCOCC3)n2)c(Cl)cn1)C1CNCCOC1 (centres unmarked) [Example 187, [1,4]Oxazepane-6-carboxylic acid {5′-chloro-6-[(tetrahydro-pyran-4-ylmethyl)-amino]-[2,4′]bipyridinyl-2′-yl}-amide] | 3 |
| O=C(Nc1cc(-c2cccc(NCC3CCOCC3)n2)c(Cl)cn1)[C@H]1CNC[C@H]1O [Example 121, (3S,4S)-4-hydroxy-pyrrolidine-3-carboxylic acid {5′-chloro-6-[(tetrahydro-pyran-4-ylmethyl)-amino]-[2,4′]bipyridinyl-2′-yl}-amide] | 134 |
| CN1CCCCC(C(=O)Nc2cc(-c3nc(NCC4CCOCC4)ccc3Cl)c(Cl)cn2)C1 (centres unmarked) [Example 200, 1-Methyl-azepane-3-carboxylic acid {3,5′-dichloro-6-[(tetrahydro-pyran-4-ylmethyl)-amino]-[2,4′]bipyridinyl-2′-yl}-amide] | 31 |
| O=C(Nc1cc(-c2cccc(NCc3ccccc3)n2)c(Cl)cn1)[C@@H]1CCCNC1 [Example 39, (R)-Piperidine-3-carboxylic acid (6-benzylamino-5′-chloro-[2,4′]bipyridinyl-2′-yl)-amide] | < 8 |
| C[C@@H]1CC(CNc2cccc(-c3cc(NC(=O)[C@H]4CNCCO4)ncc3Cl)n2)C[C@H](C)O1 (stereo partly drawn) [Example 169, (R)-Morpholine-2-carboxylic acid {5′-chloro-6-[((2R,6S)-2,6-dimethyl-tetrahydro-pyran-4-ylmethyl)-amino]-[2,4′]bipyridinyl-2′-yl}-amide] | 16 |
| O=C(Nc1cc(-c2cccc(NCC3CCOCC3)n2)c(Cl)cn1)[C@H]1CCCN1 [Example 57, (R)-Pyrrolidine-2-carboxylic acid {5′-chloro-6-[(tetrahydro-pyran-4-ylmethyl)-amino]-[2,4′]bipyridinyl-2′-yl}-amide] | 81 |
| COCCCNc1cccc(-c2cc(NC(=O)[C@@H]3CCCNC3)ncc2Cl)n1 [Example 28, (R)-Piperidine-3-carboxylic acid [5′-chloro-6-(3-methoxy-propylamino)-[2,4′]bipyridinyl-2′-yl]-amide] | 21 |
| O=C(Nc1cc(-c2cccc(NC[C@@H]3CCCO3)n2)c(Cl)cn1)[C@@H]1CCCNC1 [Example 27, (R)-Piperidine-3-carboxylic acid (5′-chloro-6-{[(S)-1-(tetrahydro-furan-2-yl)methyl]-amino}-[2,4′]bipyridinyl-2′-yl)-amide] | 21 |
| O=C(Nc1cc(-c2nc(NCC3CCOCC3)ccc2F)c(Cl)cn1)C1CNCCOC1 (single isomer, unassigned) [Example 223] | 4 |
| O=C(Nc1cc(-c2cccc(NCc3cccc(F)c3)n2)c(Cl)cn1)C1CCCCC1 [Example 2, Cyclohexanecarboxylic acid [5′-chloro-6-(3-fluoro-benzylamino)-[2,4′]bipyridinyl-2′-yl]-amide] | 134 |
| CC1(C)COC[C@H](CNc2nc(-c3cc(NC(=O)[C@@H]4CCCNC4)ncc3Cl)ccc2F)O1 (single isomer, unassigned) [Example 262] | 3 |
| O=C(Nc1cc(-c2cccc(NCC3CCCCC3)n2)c(Cl)cn1)[C@@H]1CCCNC1 [Example 17, (R)-Piperidine-3-carboxylic acid [5′-chloro-6-(cyclohexylmethyl-amino)-[2,4′]bipyridinyl-2′-yl]-amide] | < 8 |
| O=C(Nc1cc(-c2cccc(NCC3CCOCC3)n2)c(Cl)cn1)[C@@H]1CCNC1 [Example 50, (R)-Pyrrolidine-3-carboxylic acid {5′-chloro-6-[(tetrahydro-pyran-4-ylmethyl)-amino]-[2,4′]bipyridinyl-2′-yl}-amide] | < 8 |
| O=C(Nc1cc(-c2cccc(NCC3CCOCC3)n2)c(Cl)cn1)C1(F)CCCNC1 (centres unmarked) [Example 95, 3-Fluoro-piperidine-3-carboxylic acid {5′-chloro-6-[(tetrahydro-pyran-4-ylmethyl)-amino]-[2,4′]bipyridinyl-2′-yl}-amide] | 167 |
| O=C(Nc1cc(-c2cccc(NCC3CCOCC3)n2)c(Cl)cn1)C1CCCC1 [Example 65, Cyclopentanecarboxylic acid {5′-chloro-6-[(tetrahydro-pyran-4-ylmethyl)-amino]-[2,4′]bipyridinyl-2′-yl}-amide] | < 8 |
| COC(=O)N1CCC[C@H](C(=O)Nc2cc(-c3nc(N[C@H](C)C4CCOCC4)ccc3Cl)c(Cl)cn2)C1 [Example 153, (S)-3-{3,5′-Dichloro-6-[(R)-1-(tetrahydro-pyran-4-yl)-ethylamino]-[2,4′]bipyridinyl-2′-ylcarbamoyl}-piperidine-1-carboxylic acid methyl ester] | 26 |

Now from value to compound:

| IC50 [nM] | Compound |
| --- | --- |
| 2 | O=C(Nc1cc(-c2cccc(NCC3CCOCC3)n2)c(Cl)cn1)C1CCCCNC1 (centres unmarked) [Example 193, Azepane-3-carboxylic acid {5′-chloro-6-[(tetrahydro-pyran-4-ylmethyl)-amino]-[2,4′]bipyridinyl-2′-yl}-amide] |
| 2 | CC1(C)CCC(C(=O)Nc2cc(-c3cccc(NCC4CCOCC4)n3)ccn2)CN1 (centres unmarked) [Example 195, 6,6-Dimethyl-N-(6-(((tetrahydro-2H-pyran-4-yl)methyl)amino)-2,4′-bipyridin-2′-yl)piperidine-3-carboxamide] |
| 2 | CC1(C)CC(CNc2cccc(-c3cc(NC(=O)C4CNCCOC4)ncc3Cl)n2)CCO1 (centres unmarked) [Example 202, [1,4]Oxazepane-6-carboxylic acid {5′-chloro-6-[(2,2-dimethyl-tetrahydro-pyran-4-ylmethyl)-amino]-[2,4′]bipyridinyl-2′-yl}-amide] |
| 1 | CC1(C)C[C@@H](CNc2ccc(Cl)c(-c3cc(NC(=O)[C@H]4CNCCO4)ncc3Cl)n2)CCO1 (single isomer, unassigned) [Example 155] |
| 1 | O=C(Nc1cc(-c2cccc(NCC3CCOCC3)n2)c(Cl)cn1)[C@@H]1CCCNC1 [Example 3, (R)-Piperidine-3-carboxylic acid {5′-chloro-6-[(tetrahydro-pyran-4-ylmethyl)-amino]-[2,4′]bipyridinyl-2′-yl}-amide] |
| 2 | CO[C@@H]1CNC[C@H](C(=O)Nc2cc(-c3cccc(NCC4CCOCC4)n3)c(Cl)cn2)C1 (single isomer, unassigned) [Example 211] |
| 1 | C[C@@H]1CC[C@@H](C(=O)Nc2cc(-c3cccc(NC[C@@H]4CCOC(C)(C)C4)n3)c(Cl)cn2)CN1 (mixture of isomers) [Example 225, (3R,6R)-/(3S,6S)-6-Methyl-piperidine-3-carboxylic acid {5′-chloro-6-[((R)-2,2-dimethyl-tetrahydro-pyran-4-ylmethyl)-amino]-[2,4′]bipyridinyl-2′-yl}-amide] |
| 1 | CC[C@@H]1CC[C@@H](C(=O)Nc2cc(-c3ccc(F)c(NCC4CCOCC4)n3)ccn2)CN1 (racemic) [Example 251, (3R,6R)-/(3S,6S)-6-Ethyl-piperidine-3-carboxylic acid {5-fluoro-6-[(tetrahydro-pyran-4-ylmethyl)-amino]-[2,4′]bipyridinyl-2′-yl}-amide] |
| 1 | C[C@@H]1CC[C@@H](C(=O)Nc2cc(-c3cccc(NCC4CCOCC4)n3)c(Cl)cn2)CN1 (single isomer, unassigned) [Example 146] |
| 1 | O=C(Nc1cc(-c2nc(NCC3CCOCC3)ccc2F)c(Cl)cn1)[C@@H]1CCCNC1 [Example 157, (R)-Piperidine-3-carboxylic acid {5′-chloro-3-fluoro-6-[(tetrahydro-pyran-4-ylmethyl)-amino]-[2,4′]bipyridinyl-2′-yl}-amide] |
| 1 | CC[C@@H]1CC[C@@H](C(=O)Nc2cc(-c3cccc(NCC4CCOCC4)n3)c(Cl)cn2)CN1 (single isomer, unassigned) [Example 240] |
| 1 | COC[C@@H]1C[C@@H](C(=O)Nc2cc(-c3nc(NCC4CCOCC4)ccc3Cl)c(Cl)cn2)CN1 [Example 185, (3R,5S)-5-Methoxymethyl-pyrrolidine-3-carboxylic acid {3,5′-dichloro-6-[(tetrahydro-pyran-4-ylmethyl)-amino]-[2,4′]bipyridinyl-2′-yl}-amide] |
| 1 | CC1(C)C[C@H](CNc2cccc(-c3cc(NC(=O)[C@@H]4CCNC4)ncc3Cl)n2)CCO1 [Example 259, (R)-Pyrrolidine-3-carboxylic acid {5′-chloro-6-[((R)-2,2-dimethyl-tetrahydro-pyran-4-ylmethyl)-amino]-[2,4′]bipyridinyl-2′-yl}-amide] |

same assay, conditions: Cdk9_cyclinT1_IC50, generated using one of the two Cdk9/cyclinT1 assays (IMAP or Alpha Screen), not specified per value; ATP 6 uM

| IC50 [nM] | Compound |
| --- | --- |
| 6 | O=C(Nc1cc(-c2cc(NCC3CCOCC3)cnc2Cl)c(Cl)cn1)C1CNCCOC1 (centres unmarked) [Example 316, [l,4]Oxazepane-6-carboxylic acid {2,5′-dichloro-5-[(tetrahydro-pyran-4-ylmethyl)-amino]-[3,4′]bipyridinyl-2′-yl}-amide] |
| 147 | Cc1ncc(-c2cc(NC(=O)C(C)C)ncc2Cl)cc1NCC1CCOCC1 [Example 310, N-{5′-Chloro-6-methyl-5-[(tetrahydro-pyran-4-ylmethyl)-amino]-[3,4′]bipyridinyl-2′-yl}-isobutyramide] |
